In patent US8933089B2, “HIV inhibiting 5-amido substituted pyrimidines” (Janssen R & D Ireland, priority 2006, dated 2015):

Assays:
Format in all cases: cell-based, HIV-1
HIV strain K103N + Y181C = assay: Cellular anti-HIV assay in MT4 LTR-EGFP cells, mutant K103N + Y181C; details: Human immunodeficiency virus 1, 72 h, read-out: K103N + Y181C pEC50 (converted)
Experimental: (§1) Because of the increasing emergence of drug resistant HIV strains, the present compounds were tested for their potency against clinically isolated HIV strains harbouring several mutations. These mutations are associated with resistance to reverse transcriptase inhibitors and result in viruses that show various degrees of phenotypic cross-resistance to the currently commercially available drugs such as for instance AZT and delavirdine.
(§2) The antiviral activity of the compound of the present invention has been evaluated in the presence of wild type HIV and HIV mutants bearing mutations at the reverse transcriptase gene. The activity of the compounds is evaluated using a cellular assay which was performed according to the following procedure.
(§3) The human T-cell line MT4 is engineered with Green Fluorescent Protein (GFP) and an HIV-specific promoter, HIV-1 long terminal repeat (LTR). This cell line is designated MT4 LTR-EGFP, and can be used for the in vitro evaluation of anti-HIV activity of investigational compounds. In HIV-1 infected cells, the Tat protein is produced which upregulates the LTR promotor and finally leads to stimulation of the GFP reporter production, allowing to measure ongoing HIV-infection fluorometrically. Analogously, MT4 cells are engineered with GFP and the constitutional cytomegalovirus (CMV) promotor. This cell line is designated MT4 CMV-EGFP, and can be used for the in vitro evaluation of cytotoxicity of investigational compounds. In this cell line, GFP levels are comparably to those of infected MT4 LTR-EGFP cells. Cytotoxic investigational compounds reduce GFP levels of mock-infected MT4 CMV-EGFP cells.
(§4) Effective concentration values such as 50% effective concentration (EC50) can be determined and are usually expressed in μM. An EC50 value is defined as the concentration of test compound that reduces the fluorescence of HIV-infected cells by 50%. The 50% cytotoxic concentration (CC50 in μM) is defined as the concentration of test compound that reduces fluorescence of the mock-infected cells by 50%. The ratio of CC50 to EC50 is defined as the selectivity index (SI) and is an indication of the selectivity of the anti-HIV activity of the inhibitor. The ultimate monitoring of HIV-1 infection and cytotoxicity is done using a scanning microscope. Image analysis allows very sensitive detection of viral infection. Measurements are done before cell necrosis, which usually takes place about five days after infection, in particular measurements are performed three days after infection.
(§5) The columns IIIB, L100I, etc. in the table list the pEC50 values against various strains IIIB, L100I, etc.

HIV strain Y188L = assay: Cellular anti-HIV assay in MT4 LTR-EGFP cells, mutant Y188L; details: Human immunodeficiency virus 1, read-out: Y188L pEC50 (converted)
Experimental: as §1, §2, §3, §4, §5

HIV strain L100I + K103N = assay: Cellular anti-HIV assay in MT4 LTR-EGFP cells, mutant L100I + K103N; details: Human immunodeficiency virus 1, 72 h, read-out: L100I + K103N pEC50 (converted)
Experimental: as §1, §2, §3, §4, §5

HIV strain K103N = assay: Cellular anti-HIV assay in MT4 LTR-EGFP cells, mutant K103N; details: Human immunodeficiency virus 1, read-out: K103N pEC50 (converted)
Experimental: as §1, §2, §3, §4, §5

HIV strain Y181C = assay: Cellular anti-HIV assay in MT4 LTR-EGFP cells, mutant Y181C; details: Human immunodeficiency virus 1, read-out: Y181C pEC50 (converted)
Experimental: as §1, §2, §3, §4, §5

HIV strain L100I = assay: Cellular anti-HIV assay in MT4 LTR-EGFP cells, mutant L100I; details: Human immunodeficiency virus 1, read-out: L100I pEC50 (converted)
Experimental: as §1, §2, §3, §4, §5

HIV strain MDR = assay: Cellular anti-HIV assay in MT4 LTR-EGFP cells, MDR strain; details: Human immunodeficiency virus 1, read-out: MDR pEC50 (converted)
Experimental: as §1, §2, §3, §4, §5
MDR refers to a strain that contains mutations L100I, K103N, Y181C, E138G, V1791, L2214F, V278V/I and A327A/V in HIV reverse transcriptase.

[1] = system: HIV strain IIIB (wild type); assay: Cellular anti-HIV assay in MT4 LTR-EGFP cells, strain IIIB (wild type); selectivity index versus cytotoxicity in mock-infected MT4 CMV-EGFP cells; details: for EC50: Human immunodeficiency virus 1, 72 h, wild type HIV strain IIIB, MT4 LTR-EGFP cells, fluorescence, three days after infection, read-out: IIIB pEC50 (converted); for IIIB pSi: selectivity index = ratio of CC50 (mock-infected MT4 CMV-EGFP cells) to EC50 (IIIB), given as p value
Experimental: as §2, §3, §4, §5
Strain IIIB is wild type HIV strain

SMILES | EC50 (HIV strain K103N + Y181C) | EC50 (HIV strain Y188L) | EC50 (HIV strain L100I + K103N) | EC50 (HIV strain K103N) | EC50 (HIV strain Y181C) | EC50 (HIV strain L100I) | EC50 (HIV strain MDR) | EC50 [1] | IIIB pSi [1]
Cc1cc(/C=C/C#N)cc(C)c1Nc1nc(Nc2ccc(C#N)cc2)ncc1C(=O)NC1CC1 [Compound 37] | 7.94 nM | 12.6 nM | 20 nM | 1.58 nM | 12.6 nM | 5.01 nM | 1000 nM | 2.51 nM | 3.60
Cc1cc(/C=C/C#N)cc(C)c1Nc1nc(Nc2ccc(C#N)cc2)ncc1C(=O)NCC1CCCO1 (stereo not drawn) [Compound 12] | 12.6 nM | 10 nM | 20 nM | 2.51 nM | 15.8 nM | 2.51 nM | 1000 nM | 1.26 nM | 4.10
Cc1cc(/C=C/C#N)cc(C)c1Nc1nc(Nc2ccc(C#N)cc2)ncc1C(=O)NCc1ccncc1 [Compound 15] | 20 nM | 20 nM | 63.1 nM | 3.16 nM | 15.8 nM | 12.6 nM | 200 nM | 3.16 nM | 3.70
Cc1cc(/C=C/C#N)cc(C)c1Nc1nc(Nc2ccc(C#N)cc2)ncc1C(=O)N(C)CCO [Compound 7] | 63.1 nM | 50.1 nM | 50.1 nM | 2 nM | 20 nM | 7.94 nM | 2000 nM | 1.58 nM | 4.00
COCCNC(=O)c1cnc(Nc2ccc(C#N)cc2)nc1Oc1c(C)cc(/C=C/C#N)cc1C [Compound 60] | 63.1 nM | 158 nM | 316 nM | 12.6 nM | 31.6 nM | 79.4 nM | 10000 nM | 3.16 nM | 3.50
Cc1cc(/C=C/C#N)cc(C)c1Nc1nc(Nc2ccc(C#N)cc2)ncc1C(=O)NCCCN1CCCC1 [Compound 38] | 15.8 nM | 25.1 nM | 63.1 nM | 1 nM | 20 nM | 25.1 nM | 2000 nM | 0.794 nM | 3.70
Cc1cc(/C=C/C#N)cc(C)c1Oc1nc(Nc2ccc(C#N)cc2)ncc1C(=O)NCC1CCCO1 (stereo not drawn) [Compound 59] | 79.4 nM | 251 nM | 251 nM | 6.31 nM | 31.6 nM | 63.1 nM | 3980 nM | 2.51 nM | 3.80
Cc1cc(/C=C/C#N)cc(C)c1Nc1nc(Nc2ccc(C#N)cc2)ncc1C(=O)N(C)c1ccccc1 [Compound 5] | 158 nM | 100 nM | 50.1 nM | 10 nM | 100 nM | 25.1 nM | 3980 nM | 5.01 nM | >3.70
Cc1cc(/C=C/C#N)cc(C)c1Nc1nc(Nc2ccc(C#N)cc2)ncc1C(=O)NCCN(C)C [Compound 22] | 20 nM | 50.1 nM | 100 nM | 0.631 nM | 15.8 nM | 20 nM | 2000 nM | 0.794 nM | 3.90
Cc1cc(/C=C/C#N)cc(C)c1Nc1nc(Nc2ccc(C#N)cc2)ncc1C(=O)NCCc1ccc(S(N)(=O)=O)cc1 [Compound 47] | 126 nM | 100 nM | 126 nM | 25.1 nM | 50.1 nM | 63.1 nM | 501 nM | 20 nM | 3.10
Cc1cc(/C=C/C#N)cc(C)c1Nc1nc(Nc2ccc(C#N)cc2)ncc1C(=O)Nc1ccccn1 [Compound 3] | 63.1 nM | 25.1 nM | 12.6 nM | 3.16 nM | 15.8 nM | 5.01 nM | 2510 nM | 2 nM | 4.00
Cc1cc(/C=C/C#N)cc(C)c1Nc1nc(Nc2ccc(C#N)cc2)ncc1C(=O)NCc1ccc(Br)cc1 [Compound 36] | 126 nM | 398 nM | 794 nM | 25.1 nM | 126 nM | 126 nM | 10000 nM | 25.1 nM | >3.00
Cc1cc(/C=C/C#N)cc(C)c1Nc1nc(Nc2ccc(C#N)cc2)ncc1C(=O)NCc1cccc(Br)c1 [Compound 29] | 100 nM | 158 nM | 126 nM | 20 nM | 79.4 nM | 79.4 nM | 10000 nM | 15.8 nM | 3.00
Cc1cc(/C=C/C#N)cc(C)c1Nc1nc(Nc2ccc(C#N)cc2)ncc1C(=O)NCc1ccc(F)cc1 [Compound 26] | 39.8 nM | 79.4 nM | 316 nM | 12.6 nM | 50.1 nM | 25.1 nM | 5010 nM | 12.6 nM | 3.00
CCOC(=O)CCNC(=O)c1cnc(Nc2ccc(C#N)cc2)nc1Nc1c(C)cc(/C=C/C#N)cc1C [Compound 14] | 10 nM | 12.6 nM | 15.8 nM | 2.51 nM | 12.6 nM | 2.51 nM | 631 nM | 2.51 nM | >4.00
Cc1cc(/C=C/C#N)cc(C)c1Nc1nc(Nc2ccc(C#N)cc2)ncc1C(=O)N1CCN(C)CC1 [Compound 6] | 398 nM | 316 nM | 1260 nM | 5.01 nM | 100 nM | 158 nM | 10000 nM | 1.58 nM | >4.20
